# Results from US20130053407A1, “PYRROLO [3,2-D] PYRIMIDIN-3-YL DERIVATIVES USED AS ACTIVATORS OF AMPK” (GlaxoSmithKline LLC, priority 2010, published 2013).
# Key:
# [1] = tested on: ob/ob and db/db mice; conditions: 8 day AICAR administration; cited from earlier work
# [2] = tested on: Human recombinant AMPK; assay: AMPK Enzymatic Assay (Z'Lyte FRET); format: biochemical; conditions: AMPK activation, ATP 100 μM, peptide 2 μM, means of at least 2 independent experiments
# Description: Human recombinant AMPK (Invitrogen #PV4673 & #PV4675) is used in a FRET assay format (Z'Lyte—Invitrogen). Assay conditions are as follow: ATP 100 μM, peptide (Invitrogen #PR8650) 2 μM, 1% final DMSO in Z'Lyte kinase buffer. Reaction is initiated by addition of 0.2-0.8 ng of AMPK and incubated for 1-hour @ 30° C. A further 1-hour incubation @ 30° C. with the development reagent (Invitrogen #PR5194) is performed. FRET signal is then measured and converted to “% peptide phosphorylation” according to Z′Lyte given calculation procedure. Evaluation of compounds is carried out using concentration-response curves. Final data are expressed in “% activation” calculating the ratio of “% peptide phosphorylation” between compound-condition and basal-condition. […] All data are means of at least 2 independent experiments.
pEC50 [2],SMILES,reduces blood glucose [1] [%]
–,NC(=O)c1ncn([C@@H]2O[C@H](CO)[C@@H](O)[C@H]2O)c1N [AICAR],35
5.3,"COc1cccc(-c2ccc(-n3c(Cl)cc4[nH]c(=O)n(-c5cccc(F)c5)c(=O)c43)cc2)c1O [6-Chloro-3-(3-fluorophenyl)-5-[2′-hydroxy-3′-(methyloxy)-4-biphenylyl]-1H-pyrrolo[3,2-d]pyrimidine-2,4(3H,5H)-dione]",–
5.4,"Cc1cccc(-c2ccc(-n3c(Cl)cc4[nH]c(=O)n(-c5ccc(C#N)cc5)c(=O)c43)cc2)c1O [4-[6-Chloro-5-(2′-hydroxy-3′-methyl-4-biphenylyl)-2,4-dioxo-1,2,4,5-tetrahydro-3H-pyrrolo[3,2-d]pyrimidin-3-yl]benzonitrile]",–
